One assay deals with HER2 kinase (Homo sapiens (Human), UniProt P04626). Put plainly: Inhibition of HER2 kinase activity (ULight-labeled PolyGT substrate). The assay is classed as biochemical. Particulars: HER2 kinase 10 nM, ATP 10 μM, 2 hours. On the procedure:
(§1) The assay for the inhibition of EGFR and HER2 kinase activity by small molecular compounds was carried out using the method as follows:
(§2) 1) Dilution of the compounds
(§3) In a 96-well plate a, the compounds were diluted with DMSO using a 3-fold gradient dilution to form 11 concentrations, the 12th concentration is pure DMSO (as a positive control); and in a new 96-well plate b the above solutions were diluted 25 times with ultrapure water (DMSO concentration is 4%).
(§4) 2) Transferring the compounds to 384-well plate
(§5) The compound solutions diluted with ultrapure water in the 96-well plate b above was transferred to the corresponding wells of a 384-well plate in duplicate.
(§6) 3) Addition of 4×kinase solution: 2.5 μl of the above 4× kinase solution was taken using multichannel pipette and added to the corresponding reaction wells of the 384-well plate, mixed well and pre-reacted at room temperature for 5 minutes.
(§7) 4) Addition of 2×substrate/ATP mixed solution: 5 μl of the above 2×substrate/ATP mixed solution was taken using multichannel pipette and added to the corresponding reaction wells of the 384-well plate.
(§8) 5) Negative control: negative control wells were set in the 384-well plate, and 2.5 μl 4×substrate, 2.5 μl 4×enzyme solution, 2.5 μl 1×Kinase Assay Buffer and 2.5 μl ultrapure water containing 4% DMSO were added to each well.
(§9) 6) Mixed by centrifugation and kept at room temperature for 2 hours in the dark.
(§10) 7) Termination of the enzymatic reaction:
(§11) 5 μl of the above 4× stop solution was pipetted to the corresponding wells of the 384-well plate, centrifuged and mixed, and reacted at room temperature for 5 minutes.
(§12) 5 μl of the above 4× detection solution was pipetted into the corresponding wells of the 384-well plate, centrifuged and mixed, and reacted at room temperature for 1 hour.
(§13) 9) The 384-well plate was placed into a microplate reader and the signal was detected using the corresponding program.
(§14) 10) IC50 analysis: Well reading value=10000*EU665 value/EU615 value Inhibition rate=(reading value of positive control well−reading value of experimental well)/(reading value of positive control well−reading value of negative control well)*100% Corresponding IC50s can be calculated by entering the drug concentrations and the corresponding inhibition rates into GraphPad Prism 5.
Conditions of experiment for screening HER2 kinase inhibitory molecules:
The final concentration of HER2 kinase in the reaction system is 10 nM, the final concentration of ATP is 10 μM, the final concentration of substrate ULight™-labeled PolyGT is 100 nM, and the enzymatic reaction time is 2 hours.
(§15) The maximum final concentration of the compound in the reaction system is 2.5 μM, 11 concentrations were made with a 3-fold gradient dilution, and the minimal final concentration is 0.042 nM. The final concentration of DMSO is 1%.

A further assay addresses EGFR kinase (Homo sapiens (Human), UniProt P00533). Put plainly: Inhibition of EGFR kinase activity (ULight-labeled JAK-1 (Tyr1023) peptide substrate). Format: biochemical. Particulars: EGFR kinase 0.35 nM, ATP 150 μM, 2 hours. The protocol: as §1, §2, §3, §4, §5, §6, §7, §8, §9, §10, §11, §12, §13, §14
Conditions of experiment for screening EGFR kinase inhibitory molecules:
The final concentration of EGFR kinase in the reaction system is 0.35 nM, and the final concentration of ATP is 150 μM, the final concentration of substrate ULight™-labeled JAK-1 (Tyr1023) Peptide is 100 nM, and the enzymatic reaction time is 2 hours.
as §15

The next assay relates to BT474 cells. Put plainly: Inhibition of cell proliferation, BT474 (CCK-8, 72 h). The assay is classed as cell-based. Particulars: Homo sapiens, BT-474, 72 h incubation. On the procedure:
The assay for the inhibition of cell proliferation by small molecular compounds was carried out using the method as follows:
1. 600 μL pancreatin was added to a T75 cell culture flask, which was digested in a 37° C. incubator for about 1 min before 5 mL of DMEM complete culture solution was added, blew evenly, transferred to a 15 mL centrifuge tube, and centrifuged at 1000 rpm for 4 min;
2. The supernatant was removed and 5 mL DMEM complete culture solution was added, blew evenly, and 10 μL cell suspension was taken and mixed with 10 μL 0.4% Trypan Blue, and counted using a cell counter;
3. BT474 and HCC827 cell lines were seeded in 96-well plates at a cell density of 10,000 and 3000 cells/well/80 μL, respectively, and cultured overnight. Only sterile water was added to the 36 wells on the periphery of the 96-well plate without adding cells, and only the 60 wells in the center of the 96-well plate were used for cell assays and controls;
4. Dilution of compounds: the compounds were diluted with a 3-fold dilution to make 10 concentrations in total with an initial concentration of 10 mM;
5. 20 μL of different compounds with different concentrations were added to each well, and 20 μL of complete culture solution was added to the remaining wells. The final concentration of DMSO in each well is 0.25%;
6. After 72 h of incubation, 10 μL CCK-8 reagent was added to each well, and incubated at 37° C. for 1-2 h; and the OD value was read at 450 nm;
7. Cell survival rate (%)=[(As−Ab)/(Ac−Ab)]*100%
As: Assay well (medium containing cell, CCK-8, compound)
Ac: Control well (medium containing cell, CCK-8)
Ab: Blank well (CCK-8, medium without cell and compound)
8. The value was imported into Graphpad Prism5 software for the calculation of IC50s (compound concentration at which 50% maximum survival rate is observed).

pIC50: −log10 of the molar value.

This is an account of results in US11548900B2, “Oxazino-quinazoline and oxazino-quinoline type compound, preparation method and uses thereof” (BEIJING SCITECH-MQ PHARMACEUTICALS LIMITED, priority 2018, dated 2023).

Sequence of HER2 kinase (P04626 23-1255): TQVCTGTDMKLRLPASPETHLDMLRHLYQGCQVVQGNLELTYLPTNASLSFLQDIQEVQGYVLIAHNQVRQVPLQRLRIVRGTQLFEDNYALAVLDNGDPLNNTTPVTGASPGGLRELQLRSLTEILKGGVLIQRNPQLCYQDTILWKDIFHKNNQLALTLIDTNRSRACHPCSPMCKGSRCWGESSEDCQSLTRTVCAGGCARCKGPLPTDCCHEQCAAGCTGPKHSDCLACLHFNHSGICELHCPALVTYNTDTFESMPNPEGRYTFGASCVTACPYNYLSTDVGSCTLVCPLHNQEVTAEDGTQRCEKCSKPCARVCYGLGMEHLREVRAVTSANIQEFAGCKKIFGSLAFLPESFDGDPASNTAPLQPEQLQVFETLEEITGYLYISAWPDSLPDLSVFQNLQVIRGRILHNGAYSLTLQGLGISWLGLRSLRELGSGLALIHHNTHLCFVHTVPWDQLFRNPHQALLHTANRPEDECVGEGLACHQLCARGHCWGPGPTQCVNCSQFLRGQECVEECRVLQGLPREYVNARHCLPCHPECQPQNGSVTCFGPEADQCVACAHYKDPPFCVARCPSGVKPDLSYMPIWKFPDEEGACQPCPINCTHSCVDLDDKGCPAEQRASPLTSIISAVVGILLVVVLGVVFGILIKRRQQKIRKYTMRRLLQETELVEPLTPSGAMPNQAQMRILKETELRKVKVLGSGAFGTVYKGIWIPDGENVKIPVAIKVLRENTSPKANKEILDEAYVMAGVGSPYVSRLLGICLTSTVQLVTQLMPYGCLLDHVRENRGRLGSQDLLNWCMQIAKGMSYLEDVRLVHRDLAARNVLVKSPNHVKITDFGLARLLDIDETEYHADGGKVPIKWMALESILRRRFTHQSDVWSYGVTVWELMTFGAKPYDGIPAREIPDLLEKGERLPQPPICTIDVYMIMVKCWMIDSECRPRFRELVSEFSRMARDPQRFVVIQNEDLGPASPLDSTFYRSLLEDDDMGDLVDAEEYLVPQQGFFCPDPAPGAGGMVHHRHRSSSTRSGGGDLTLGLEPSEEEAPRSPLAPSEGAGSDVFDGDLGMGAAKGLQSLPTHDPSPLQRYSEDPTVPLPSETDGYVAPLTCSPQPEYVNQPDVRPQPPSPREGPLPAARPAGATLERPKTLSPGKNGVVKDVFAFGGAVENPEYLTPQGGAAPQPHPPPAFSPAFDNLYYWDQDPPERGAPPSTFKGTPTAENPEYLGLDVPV
Sequence of EGFR kinase (P00533 25-1210): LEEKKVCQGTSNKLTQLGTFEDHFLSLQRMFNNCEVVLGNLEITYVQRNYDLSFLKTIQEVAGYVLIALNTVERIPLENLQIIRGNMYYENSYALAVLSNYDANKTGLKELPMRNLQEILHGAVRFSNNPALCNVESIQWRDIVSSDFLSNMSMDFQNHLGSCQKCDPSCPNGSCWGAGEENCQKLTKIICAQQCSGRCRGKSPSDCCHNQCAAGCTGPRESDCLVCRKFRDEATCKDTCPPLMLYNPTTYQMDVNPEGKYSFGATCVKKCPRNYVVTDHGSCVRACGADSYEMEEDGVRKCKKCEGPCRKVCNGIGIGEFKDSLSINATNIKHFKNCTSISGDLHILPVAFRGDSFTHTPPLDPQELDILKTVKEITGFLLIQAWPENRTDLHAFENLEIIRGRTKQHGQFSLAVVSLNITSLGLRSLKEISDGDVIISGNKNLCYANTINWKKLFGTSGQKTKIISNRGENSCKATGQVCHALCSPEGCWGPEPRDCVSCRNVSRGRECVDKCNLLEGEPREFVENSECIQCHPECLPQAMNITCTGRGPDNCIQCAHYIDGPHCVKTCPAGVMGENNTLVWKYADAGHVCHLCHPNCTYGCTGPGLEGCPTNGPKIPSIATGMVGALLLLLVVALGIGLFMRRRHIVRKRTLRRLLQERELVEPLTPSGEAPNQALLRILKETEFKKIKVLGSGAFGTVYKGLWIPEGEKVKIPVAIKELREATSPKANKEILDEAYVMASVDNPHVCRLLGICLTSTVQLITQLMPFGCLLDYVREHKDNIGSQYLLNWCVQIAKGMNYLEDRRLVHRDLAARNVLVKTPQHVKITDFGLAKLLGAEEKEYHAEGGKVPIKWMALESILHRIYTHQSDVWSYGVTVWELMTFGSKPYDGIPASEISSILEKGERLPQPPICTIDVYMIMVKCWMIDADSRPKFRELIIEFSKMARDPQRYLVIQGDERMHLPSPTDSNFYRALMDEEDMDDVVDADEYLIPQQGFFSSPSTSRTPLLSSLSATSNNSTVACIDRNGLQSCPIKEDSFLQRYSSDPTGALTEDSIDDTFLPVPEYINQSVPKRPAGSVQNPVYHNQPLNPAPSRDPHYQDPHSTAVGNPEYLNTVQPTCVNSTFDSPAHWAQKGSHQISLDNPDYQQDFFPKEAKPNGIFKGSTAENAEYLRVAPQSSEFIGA

For orientation: pIC50 means −log10 of the IC50, conventionally taken in molar units. The low end stands for a high IC50, the high end for a low IC50. With `C=CC(=O)N1CCOc2c1ccc1ncnc(Nc3ccc(OCc4ccccn4)c(Cl)c3)c21` [Example 4, 1-(10-((3-chloro-4-(pyridin-2-ylmethoxy)phenyl)amino)-2,3-dihydro-4H-[1,4]oxazino[2,3-f]quinazolin-4-yl)prop-2-en-1-one], the pIC50 at HER2 kinase and against EGFR kinase was not below 7.30 in each case.

As to `C=CC(=O)N1CCOc2c1ccc1ncnc(Oc3ccc(Oc4ccccc4)cc3)c21` [Example 33, 1-(10-(4-phenoxyphenoxy)-2,3-dihydro-4H-[1,4]oxazino[2,3-f]quinazolin-4-yl)prop-2-en-1-one], the pIC50 on HER2 kinase and against EGFR kinase was not below 7.30 in each case.

For `C=CC(=O)N1CCOc2c1ccc1ncnc(Oc3ccc(OCc4ccccn4)c(Cl)c3)c21` [Example 34, 1-(10-(3-chloro-4-(pyridin-2-ylmethoxy)phenoxy)-2,3-dihydro-4H-[1,4]oxazino[2,3-f]quinazolin-4-yl)prop-2-en-1-one], the negative-log IC50 (pIC50) on HER2 kinase and against EGFR kinase was not below 7.30 each time.

With `C=CC(=O)N1CCOc2c1ccc1ncnc(Oc3ccc(OCc4cccc(F)c4)c(Cl)c3)c21` [Example 35, 1-(10-(3-chloro-4-((3-fluorobenzyl)oxy)phenoxy)-2,3-dihydro-4H-[1,4]oxazino[2,3-f]quinazolin-4-yl)prop-2-en-1-one], the negative logarithm of the IC50 (pIC50) against HER2 kinase and on EGFR kinase was not below 7.30 throughout.

Take `C=CC(=O)N1CCOc2c1ccc1ncnc(Oc3ccc(Oc4ccc(F)cc4)cc3)c21` [Example 37, 1-(10-(4-(4-fluorophenoxy)phenoxy)-2,3-dihydro-4H-[1,4]oxazino[2,3-f]quinazolin-4-yl)prop-2-en-1-one]: the pIC50 at HER2 kinase and at EGFR kinase was not below 7.30 throughout.

For the compound `C=CC(=O)N1CCOc2c1ccc1ncnc(Oc3ccc(OCc4ccccn4)cc3)c21` [Example 39, 1-(10-(4-(pyridin-2-ylmethoxy)phenoxy)-2,3-dihydro-4H-[1,4]oxazino[2,3-f]quinazolin-4-yl)prop-2-en-1-one], the pIC50 at HER2 kinase and against EGFR kinase was not below 7.30 throughout.

For `C=CC(=O)N1CCOc2c1ccc1ncnc(Oc3ccc(OCc4ccccc4F)cc3)c21` [Example 40, 1-(10-(4-((2-fluorobenzyl)oxy)phenoxy)-2,3-dihydro-4H-[1,4]oxazino[2,3-f]quinazolin-4-yl)prop-2-en-1-one], the pIC50 on HER2 kinase and against EGFR kinase was not below 7.30 each time.

Take `C=CC(=O)N1CCOc2c1ccc1ncnc(Oc3ccc(OCc4cccc(F)c4)cc3)c21` [Example 41, 1-(10-(4-((3-fluorobenzyl)oxy)phenoxy)-2,3-dihydro-4H-[1,4]oxazino[2,3-f]quinazolin-4-yl)prop-2-en-1-one]: the pIC50 against HER2 kinase and against EGFR kinase was not below 7.30 each time.

With `C=CC(=O)N1CCOc2c1ccc1ncnc(Oc3ccc(OCc4ccc(F)cc4)cc3)c21` [Example 42, 1-(10-(4-((4-fluorobenzyl)oxy)phenoxy)-2,3-dihydro-4H-[1,4]oxazino[2,3-f]quinazolin-4-yl)prop-2-en-1-one], the negative logarithm of the IC50 (pIC50) against HER2 kinase and against EGFR kinase was not below 7.30 each time.

Turning to `CN(C)C/C=C/C(=O)N1CCOc2c1ccc1ncnc(Nc3ccc(Oc4cccc(C(F)(F)F)c4)cc3)c21` [Example 43, (E)-4-(dimethylamino)-1-(10-((4-(3-(trifluoromethyl)phenoxy)phenyl)amino)-2,3-dihydro-4H-[1,4]oxazino[2,3-f]quinazolin-4-yl)but-2-en-1-one], the pIC50 against HER2 kinase and against EGFR kinase was not below 7.30 each time.

On to `CN(C)C/C=C/C(=O)N1CCOc2c1ccc1ncnc(Nc3ccc(OCc4cccc(F)c4)c(Cl)c3)c21` [Example 45, (E)-1-(10-((3-chloro-4-((3-fluorobenzyl)oxy)phenyl)amino)-2,3-dihydro-4H-[1,4]oxazino[2,3-f]quinazolin-4-yl)-4-(dimethylamino)but-2-en-1-one], for which the pIC50 against HER2 kinase and at EGFR kinase was not below 7.30 throughout.

Take `CN(C)C/C=C/C(=O)N1CCOc2c1ccc1ncnc(Nc3ccc(Oc4ccc(Cl)cc4)cc3)c21` [Example 52, (E)-4-(dimethylamino)-1-(10-((4-(4-chlorophenoxy)phenyl)amino)-2,3-dihydro-4H-[1,4]oxazino[2,3-f]quinazolin-4-yl)but-2-en-1-one]: the negative logarithm of the IC50 (pIC50) on HER2 kinase and at EGFR kinase was not below 7.30 each time.

Turning to `CN(C)C/C=C/C(=O)N1CCOc2c1ccc1ncnc(Nc3ccc(OCc4cccc(F)c4)c(C(F)(F)F)c3)c21` [Example 67], the pIC50 against HER2 kinase and on EGFR kinase was not below 7.30 throughout.

With `CN(C)C/C=C/C(=O)N1CCOc2c1ccc1ncnc(Nc3ccc(Sc4ccc(F)cc4)cc3)c21` [Example 70, (E)-4-(dimethylamino)-1-(10-((4-((4-fluorophenyl)thio)phenyl)amino)-2,3-dihydro-4H-[1,4]oxazino[2,3-f]quinazolin-4-yl)but-2-en-1-one], the negative logarithm of the IC50 (pIC50) on HER2 kinase, with BT474 cells and against EGFR kinase was not below 7.30 throughout.

Turning to `CC(Oc1ccc(Nc2ncnc3ccc4c(c23)OCCN4C(=O)/C=C/CN(C)C)cc1)c1ccccn1` (centres unmarked) [Example 75, (E)-4-(dimethylamino)-1-(10-((4-(1-(pyridin-2-yl)ethoxy)phenyl)amino)-2,3-dihydro-4H-[1,4]oxazino[2,3-f]quinazolin-4-yl)but-2-en-1-one], the negative-log IC50 (pIC50) on HER2 kinase is not below 7.30; at EGFR kinase, 6.30 to 7.30.

In the case of `CN(C)C/C=C/C(=O)N1CCOc2c1ccc1ncnc(Nc3ccc(OCc4ccncc4)cc3)c21` [Example 77, (E)-4-(dimethylamino)-1-(10-((4-(pyridin-4-ylmethoxy)phenyl)amino)-2,3-dihydro-4H-[1,4]oxazino[2,3-f]quinazolin-4-yl)but-2-en-1-one], the negative logarithm of the IC50 (pIC50) was not below 7.30 at HER2 kinase and 5.30 to 6.30 against EGFR kinase.

For `COCCCCNC/C=C/C(=O)N1CCOc2c1ccc1ncnc(Nc3ccc(Oc4ccccc4F)cc3)c21` [Example 99, (E)-1-(10-((4-(2-fluorophenoxy)phenyl)amino)-2,3-dihydro-4H-[1,4]oxazino[2,3-f]quinazolin-4-yl)-4-((4-methoxybutyl)amino)but-2-en-1-one], the figures for the negative-log IC50 (pIC50) against HER2 kinase and on EGFR kinase were not below 7.30 and 6.30 to 7.30, respectively.

Turning to `Cc1cc(Nc2ncnc3ccc4c(c23)OCCN4C(=O)/C=C/CN(C)C)ccc1Oc1ccn2ncnc2c1` [Example 124, (E)-1-(10-((4-([1,2,4]triazolo[1,5-a]pyridin-7-yloxy)-3-methylphenyl)amino)-2,3-dihydro-4H-[1,4]oxazino[2,3-f]quinazolin-4-yl)-4-(dimethylamino)but-2-en-1-one], the pIC50 is not below 7.30 against HER2 kinase, not below 7.30 with BT474 cells and 6.30 to 7.30 at EGFR kinase.
